Results from ChEMBL document CHEMBL1926617, “Antifungal activities of novel non-azole molecules against S. cerevisiae and C. albicans” (Eur J Med Chem, 2012).
≈ marks a conversion by molar mass, not a printed value. Calls of active or inactive are those of the source. The rule behind the calls is not given here.

Legend:
Saccharomyces cerevisiae [1] = assay: Antifungal activity against Saccharomyces cerevisiae ATCC 24657 assessed as growth inhibition after 24 to 48 hrs by agar plate bioassay; assay type: functional
Saccharomyces cerevisiae [2] = assay: Antifungal activity against Saccharomyces cerevisiae ATCC 24657 assessed as growth inhibition after 24 to 48 hrs by spectrophotometric bioassay; assay type: functional
Candida albicans [3] = assay: Antifungal activity against Candida albicans assessed as morphogenetic transformation after 3 hrs by phase-contrast microscopy; assay type: functional
Candida albicans [4] = assay: Antifungal activity against Candida albicans ATCC 32032 assessed as growth inhibition after 24 to 48 hrs by agar plate bioassay; assay type: functional
Cytochrome P450 2C19 = Cytochrome P450 2C19 (Homo sapiens, UniProt P33261); assay: Inhibition of human recombinant CYP2C19; assay type: ADME
Saccharomyces cerevisiae [5] = assay: Fungistatic activity against Saccharomyces cerevisiae ATCC 24657 assessed as cell proliferation at 100 uM after 24 hrs by spectrophotometric bioassay; assay type: functional, organism-based
Saccharomyces cerevisiae [6] = assay: Fungistatic activity against Saccharomyces cerevisiae ATCC 24657 assessed as cell growth at 100 uM after 48 hrs by spectrophotometric bioassay; assay type: functional, organism-based
Cytochrome P450 3A4 = Cytochrome P450 3A4 (Homo sapiens, UniProt P08684); assay: Inhibition of human recombinant CYP3A4; assay type: ADME
Cytochrome P450 2C9 = Cytochrome P450 2C9 (Homo sapiens, UniProt P11712); assay: Inhibition of human recombinant CYP2C9; assay type: ADME
Cytochrome P450 2D6 = Cytochrome P450 2D6 (Homo sapiens, UniProt P10635); assay: Inhibition of human recombinant CYP2D6; assay type: ADME
Saccharomyces cerevisiae [7] = assay: Fungistatic activity against Saccharomyces cerevisiae ATCC 24657 assessed as cell proliferation at 100 uM after 24 hrs by agar plate bioassay relative to control; assay type: functional; conditions: ATCC 24657, 24 h
Cytochrome P450 1A2 = molecular target: T1, Cytochrome P450 1A2 (Homo sapiens, UniProt P05177); assay: Inhibition of human recombinant CYP1A2; assay type: ADME
T1 sequence (P05177 whole entry): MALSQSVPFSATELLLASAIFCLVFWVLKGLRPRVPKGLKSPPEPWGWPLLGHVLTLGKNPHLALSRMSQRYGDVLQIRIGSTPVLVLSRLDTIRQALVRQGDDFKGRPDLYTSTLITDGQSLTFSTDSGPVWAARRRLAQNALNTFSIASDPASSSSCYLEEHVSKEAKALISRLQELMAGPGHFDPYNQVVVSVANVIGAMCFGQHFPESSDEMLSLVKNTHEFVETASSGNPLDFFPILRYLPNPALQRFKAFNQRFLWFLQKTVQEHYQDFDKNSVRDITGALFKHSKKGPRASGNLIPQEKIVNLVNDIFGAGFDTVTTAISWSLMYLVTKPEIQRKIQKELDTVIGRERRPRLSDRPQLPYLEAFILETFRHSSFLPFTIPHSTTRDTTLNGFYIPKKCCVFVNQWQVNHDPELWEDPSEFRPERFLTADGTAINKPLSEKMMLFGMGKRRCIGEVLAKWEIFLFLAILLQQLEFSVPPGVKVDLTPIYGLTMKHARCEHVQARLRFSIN

Saccharomyces cerevisiae [8] = assay: Antifungal activity against Saccharomyces cerevisiae ATCC 24657 assessed as growth inhibition at 31.2 uM after 24 to 48 hrs by agar plate bioassay; assay type: functional, organism-based
Saccharomyces cerevisiae [9] = assay: Fungistatic activity against Saccharomyces cerevisiae ATCC 24657 assessed as cell proliferation compound after 24 to 48 hrs by spectrophotometric bioassay; assay type: functional, organism-based
Saccharomyces cerevisiae [10] = assay: Antifungal activity against Saccharomyces cerevisiae ATCC 24657 assessed as growth inhibition at 31.2 uM after 24 to 48 hrs by spectrophotometric bioassay; assay type: functional, organism-based
Saccharomyces cerevisiae [11] = assay: Fungistatic activity against Saccharomyces cerevisiae ATCC 24657 assessed as cell proliferation compound after 24 to 48 hrs by agar plate bioassay; assay type: functional, organism-based

Sequence of Cytochrome P450 3A4 (P08684 whole entry): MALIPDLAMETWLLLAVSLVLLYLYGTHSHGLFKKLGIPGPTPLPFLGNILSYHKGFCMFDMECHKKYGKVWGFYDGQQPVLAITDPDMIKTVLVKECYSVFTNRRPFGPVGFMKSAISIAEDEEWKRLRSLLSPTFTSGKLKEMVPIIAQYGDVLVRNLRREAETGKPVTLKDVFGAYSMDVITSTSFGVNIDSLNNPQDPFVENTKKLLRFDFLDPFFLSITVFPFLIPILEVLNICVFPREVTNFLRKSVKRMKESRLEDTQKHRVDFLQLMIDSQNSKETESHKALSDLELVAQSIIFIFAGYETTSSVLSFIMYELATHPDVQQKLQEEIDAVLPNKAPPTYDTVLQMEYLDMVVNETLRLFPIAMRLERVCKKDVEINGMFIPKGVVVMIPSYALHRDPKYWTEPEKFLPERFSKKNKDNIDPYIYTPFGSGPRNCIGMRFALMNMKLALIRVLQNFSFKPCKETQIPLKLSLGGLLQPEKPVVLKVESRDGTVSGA
Sequence of Cytochrome P450 2D6 (P10635 whole entry): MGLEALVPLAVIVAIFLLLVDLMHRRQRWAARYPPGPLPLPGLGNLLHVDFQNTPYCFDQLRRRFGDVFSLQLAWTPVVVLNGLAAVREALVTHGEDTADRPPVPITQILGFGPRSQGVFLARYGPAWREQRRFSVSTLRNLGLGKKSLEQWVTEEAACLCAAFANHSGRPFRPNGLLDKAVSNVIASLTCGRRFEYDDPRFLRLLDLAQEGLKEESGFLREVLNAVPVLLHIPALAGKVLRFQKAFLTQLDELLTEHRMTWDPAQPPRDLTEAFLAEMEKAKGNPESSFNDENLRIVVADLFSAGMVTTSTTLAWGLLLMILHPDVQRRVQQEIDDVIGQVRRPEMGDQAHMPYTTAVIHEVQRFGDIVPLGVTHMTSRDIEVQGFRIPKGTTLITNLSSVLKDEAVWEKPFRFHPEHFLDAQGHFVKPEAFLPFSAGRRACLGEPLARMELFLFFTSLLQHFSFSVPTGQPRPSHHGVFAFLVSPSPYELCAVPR
Sequence of Cytochrome P450 2C9 (P11712 whole entry): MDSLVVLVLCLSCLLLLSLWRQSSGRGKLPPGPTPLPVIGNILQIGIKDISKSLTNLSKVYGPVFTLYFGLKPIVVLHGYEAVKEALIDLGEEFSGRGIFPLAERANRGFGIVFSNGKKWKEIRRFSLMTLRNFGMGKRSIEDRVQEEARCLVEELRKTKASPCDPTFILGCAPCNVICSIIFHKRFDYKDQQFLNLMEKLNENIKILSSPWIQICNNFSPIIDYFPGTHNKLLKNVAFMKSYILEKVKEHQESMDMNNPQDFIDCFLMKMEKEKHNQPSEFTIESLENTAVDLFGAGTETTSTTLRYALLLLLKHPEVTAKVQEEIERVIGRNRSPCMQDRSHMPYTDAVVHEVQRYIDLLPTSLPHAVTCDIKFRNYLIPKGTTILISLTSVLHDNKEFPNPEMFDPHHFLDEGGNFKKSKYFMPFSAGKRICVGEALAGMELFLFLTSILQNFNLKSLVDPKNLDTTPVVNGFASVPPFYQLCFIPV
Sequence of Cytochrome P450 2C19 (P33261 whole entry): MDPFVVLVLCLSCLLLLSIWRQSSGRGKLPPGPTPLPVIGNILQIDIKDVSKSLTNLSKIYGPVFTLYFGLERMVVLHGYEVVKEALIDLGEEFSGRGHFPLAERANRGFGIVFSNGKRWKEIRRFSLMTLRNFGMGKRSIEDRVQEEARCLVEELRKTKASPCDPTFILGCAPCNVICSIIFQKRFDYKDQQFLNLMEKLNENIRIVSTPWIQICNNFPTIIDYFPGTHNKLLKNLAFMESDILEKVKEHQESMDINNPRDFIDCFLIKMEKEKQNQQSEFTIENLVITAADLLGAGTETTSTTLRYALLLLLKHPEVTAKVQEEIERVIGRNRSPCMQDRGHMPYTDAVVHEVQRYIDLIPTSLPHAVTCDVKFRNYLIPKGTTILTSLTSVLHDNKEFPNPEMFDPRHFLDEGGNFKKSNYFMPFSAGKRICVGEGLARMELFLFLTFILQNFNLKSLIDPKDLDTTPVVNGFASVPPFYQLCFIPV

In the case of `Cc1n[nH]c(=O)c(N)c1-c1cc(-c2ccsc2)[nH]n1`, the MIC (Saccharomyces cerevisiae [1]) is reported as over 200 µM.
`CCOC(=O)/C(C#N)=C/c1ccc(N(C)CCC#N)cc1` gave an MIC (Saccharomyces cerevisiae [1]) of over 200 µM.
With `Cc1cccc(C(=O)Nc2sc3c(c2C(N)=O)CCCC3)c1` the MIC (Saccharomyces cerevisiae [1]) was over 200 µM and the MIC50 (Saccharomyces cerevisiae [2]) was 50 µM (≈ 15.7 µg/mL).
With `CN(CCC#N)c1ccc(/C=N/NC(=O)N/N=C/c2ccc(N(C)CCC#N)cc2)cc1` the MIC (Saccharomyces cerevisiae [1]) was over 200 µM.
Work on `CCC(C)(C)c1ccc(CC(C)CN2C[C@@H](C)O[C@@H](C)C2)cc1` (some centres not stated) [AMOROLFINE] yielded an MIC (Candida albicans [3]) of 202 µM (≈ 64 µg/mL).
Work on `Cc1ccc(Cc2cc(C)ncc2C)c(C)c1` yielded an MIC (Saccharomyces cerevisiae [1]) of 100 µM (≈ 22.5 µg/mL) and an MIC50 (Saccharomyces cerevisiae [1]) of 14 µM (≈ 3.15 µg/mL).
`COC(C)(C)CCSc1nc2ccc(NC(=O)CCCC(=O)NCc3ccco3)cc2s1` was tested, and the MIC (Saccharomyces cerevisiae [1]) was over 200 µM.
For `O=C(c1ccncc1)c1ccc(Cl)cc1`, the MIC (Saccharomyces cerevisiae [1]) was over 200 µM and the MIC50 (Saccharomyces cerevisiae [1]) was 100 µM (≈ 21.8 µg/mL).
`CC1=C(C#N)C(c2sc3ccccc3c2C)C2=C(CCCC2=O)N1` (configuration not stated) was tested, and the MIC (Saccharomyces cerevisiae [1]) was over 250 µM and the MIC50 (Saccharomyces cerevisiae [1]) was 118 µM (≈ 39.5 µg/mL).
In the case of `COc1ccc(-c2sc(/N=C/c3ccc(N(C)CCC#N)cc3)c(C#N)c2C)cc1OC`, the MIC (Candida albicans [4]) is reported as 12 µM (≈ 5.33 µg/mL), the IC50 (Cytochrome P450 2C19) is reported as 1.1 µM and the Activity (Saccharomyces cerevisiae [5]) is reported as “Active”. For the same molecule, the Activity (Saccharomyces cerevisiae [6]) was “inactive”, the MIC (Saccharomyces cerevisiae [1]) was 118 µM (≈ 52.5 µg/mL) and the MIC50 (Saccharomyces cerevisiae [1]) was 2.7 µM (≈ 1.2 µg/mL). For the same molecule, the IC50 (Cytochrome P450 3A4) was 33.2 µM, the IC50 (Cytochrome P450 2C9) was 1.2 µM and the IC50 (Cytochrome P450 2D6) was 23.3 µM. It also gave an inhibition at 100 µM (Saccharomyces cerevisiae [7]) of 95% and an IC50 (Cytochrome P450 1A2) of 11.9 µM.
In the case of `Cc1ccc(C(=O)N(C)Cc2ccco2)c(C2CCN(C(=O)/C=C/c3ccc4c(c3)OCO4)CC2)n1`, the MIC (Saccharomyces cerevisiae [1]) is reported as over 200 µM.
In the case of `CC(=O)N1CCN(c2ccc(OCC3COC(Cn4ccnc4)(c4ccc(Cl)cc4Cl)O3)cc2)CC1` (configuration not stated), the “growth inhibition (GI)” value (Saccharomyces cerevisiae [8]) is reported as “Active”, the Activity (Saccharomyces cerevisiae [9]) is reported as “inactive” and the “growth inhibition (GI)” value (Saccharomyces cerevisiae [10]) is reported as “Active”. The Activity (Saccharomyces cerevisiae [11]) was “inactive”.
`FC(F)(F)Oc1ccc(C2c3ccsc3CCN2Cc2ccc3c(c2)CCO3)cc1` (configuration not stated) gave an MIC50 (Saccharomyces cerevisiae [1]) of 120 µM (≈ 51.8 µg/mL).
In the case of `COC(=O)c1cscc1NC(=O)CC(CC(=O)O)c1ccccc1` (configuration not stated), the MIC (Saccharomyces cerevisiae [1]) is reported as over 200 µM.
`Clc1ccc(Cc2ccncc2)cc1` was tested, and the MIC (Saccharomyces cerevisiae [1]) was 150 µM (≈ 30.6 µg/mL) and the MIC50 (Saccharomyces cerevisiae [1]) was 18 µM (≈ 3.67 µg/mL).
`Clc1ccc(COC(Cn2ccnc2)c2ccc(Cl)cc2Cl)c(Cl)c1` (configuration not stated) [MICONAZOLE] showed an MIC (Candida albicans [3]) of 76.9 µM (≈ 32 µg/mL).
`C=CCn1c(SCC(=O)c2ccccc2)nc2sc3c(c2c1=O)CCC(C)C3` (configuration not stated) gave an MIC (Saccharomyces cerevisiae [1]) of over 200 µM.
For `CC[C@@H]1C(=O)OC[C@@H]1Cc1cncn1C` [PILOCARPINE], the MIC (Saccharomyces cerevisiae [1]) was over 200 µM.
`COc1ccc(-c2sc(/N=C/c3ccc(-c4ccccc4)cc3)c(C#N)c2C)cc1OC` was tested, and the MIC (Candida albicans [4]) was 8 µM (≈ 3.51 µg/mL), the IC50 (Cytochrome P450 2C19) was 2.3 µM and the IC50 (Cytochrome P450 3A4) was over 100 µM. For the same molecule, the IC50 (Cytochrome P450 2C9) was 1.4 µM, the IC50 (Cytochrome P450 2D6) was over 100 µM and the IC50 (Cytochrome P450 1A2) was 26 µM.
`Cc1ccc(C(=O)N(C)Cc2ccco2)c(C2CCN(C(=O)c3cc4c(C)nn(C)c4s3)CC2)n1` was tested, and the MIC (Saccharomyces cerevisiae [1]) was over 200 µM.
Molecule `CN(CCC#N)c1ccc(/C=C2\CC/C(=C\c3ccc(N(C)CCC#N)cc3)C2=O)cc1` has an MIC (Saccharomyces cerevisiae [1]) of over 200 µM.
Molecule `C=CCSc1ncccc1C1=NN(CC(=O)N(CCC(=O)OCC)Cc2ccco2)C(=O)C1` has an MIC (Saccharomyces cerevisiae [1]) of over 200 µM.
`Cc1nc(SCc2c(F)cccc2Cl)c(C#N)c(C)c1Cc1c(F)cccc1Cl` was tested, and the MIC (Saccharomyces cerevisiae [1]) was over 200 µM.
For `OC(Cn1cncn1)(Cn1cncn1)c1ccc(F)cc1F` [FLUCONAZOLE], the MIC (Candida albicans [3]) was 104 µM (≈ 32 µg/mL).
`COc1ccc(C(=O)CCC(=O)N2CCC(c3nc(C(=O)Nc4ccc(O)c(C)c4C)cs3)CC2)cc1` showed an MIC (Saccharomyces cerevisiae [1]) of over 200 µM.
`Cc1c(-c2ccccc2)sc(/N=C/c2cc(Cl)cc(Cl)c2O)c1C#N` was tested, and the MIC (Candida albicans [4]) was 40 µM (≈ 15.5 µg/mL).
With `COc1ccc(-c2sc(/N=C/c3cc(Br)cc(Br)c3O)c(C#N)c2C)cc1OC` the MIC (Candida albicans [4]) was over 100 µM.
Work on `C=CCOc1ccc(/C=C2\CCc3cc(OC)ccc3C2=O)cc1` yielded an MIC (Saccharomyces cerevisiae [1]) of over 200 µM.
`Cc1ccc(C(=O)N(C)Cc2ccco2)c(C2CCN(C(=O)/C=C/c3cccs3)CC2)n1` showed an MIC (Saccharomyces cerevisiae [1]) of over 200 µM.
